Data set [1] has as its system mutant HTT. Description: Mutant HTT assay in lymphoblastoid cells (LBC), Western blot. In kind it is cell-based, human. The note with it: read-out: LBC IC20 (nM) mHTT, 3 days compound treatment. How it is done:
(§1) B. Mutant and Wild-Type HTT Assay in Lymphoblastoid Cells (LBC)
(§2) a. Cell Culturing and Compound Treatment
(§3) Lymphoblastoid cells derived from a Huntington's disease patient with 250 CAG repeats in the mutant HTT allele (GM14044 from Coriell Institute) were cultured in RPMI 1640 (Corning Cellgro, 10-040-CV) containing fetal bovine serum (Atlanta Biologicals, S11150). 4×10^5 cells were seeded on a 24-well plate and incubated with testing compound for 3 days. The cell suspension was then transferred to a 1.5 ml Eppendorf tube. Cells were collected by centrifugation and washed once with PBS. After all liquid was removed, the cell pellet was placed at −80° C. for at least 10 minutes. Lysis buffer [30 mM Tris-HCl (pH 8.0), 5 mM NaCl, 0.1% Triton X-100] with the proteinase inhibitor cocktail (P8340 from Sigma-Aldrich) was then added to the cells. Following centrifugation (14 k rpm for 15 min at 4° C.), the supernatant was collected. The protein concentrations were determined by BCA assay (Pierce, ThermoFisher).
(§4) Equal amounts of protein were loaded onto 4-12% gel (Invitrogen, WG1403A). After electrophoresis, the gels were transferred to nitrocellulose membranes by wet transfer at 72V for 3 hrs. […] The protein levels of mutant HTT, wild-type HTT, TBP, and tubulin were determined by immunoblotting with anti-polyQ specific antibody (clone MW1), anti-Huntingtin antibody (Abcam, ab45169), anti-TBP antibody (Sigma, T1827) and anti-alpha tubulin antibody (Sigma, T9026). Blots were imaged on a Li-Cor Odyssey infrared imager. The band intensities were determined by Li-Cor Odyssey software.

The subject of data set [2] is Lymphoblastoid cells (GM14044). Description: LBC cell viability (Cell Titer-Glo). The format is cell-based, human. The note with it: at the concentration of IC20, 3-day compound treatment. How it is done: Cell viability was determined by Cell Titer-Glo reagent (Promega, PRG9243). After 3-day compound treatment, 15 μl of cell suspension was taken out from plate and incubated with 10 μl of CTG reagent. The values of reaction mixture were detected by Tecan.

Data set [3] concerns wild-type HTT. Description: Wild-type HTT assay in lymphoblastoid cells (LBC), Western blot. In kind it is cell-based, human. To be noted: 3 days compound treatment, read-out: LBC IC20 (nM) wtHTT. The protocol:
as §1, §2, §3, §4

In data set [4] the target is T1, interaction between Supt4h and NGN (subunit of Supt5h) (Homo sapiens, UniProt O00267+P63272).
T1 construct: expressed in transfected cells
As to the kind of experiment: Split Gaussia luciferase complementation assay (M2-8 Luciferase). In kind it is cell-based. The note with it: M2-8 cells. The procedure, abridged:
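HEK293-derived M2-8 cells inducibly express Supt4h-Gluc1 and NGN-Gluc2 fragments (stabilizing mutations) on RheoSwitch ligand addition; ligand plus compound added 24 h after plating and left 24 h. Cells frozen, lysed with 10 μg/ml native coelenterazine, 1 h room temperature dark; complemented luciferase luminescence read.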

The test system of data set [5] is mutant HTT. Description: Mutant HTT assay in induced pluripotent stem cells (iPSC). In kind it is cell-based, human. The note with it: HD patient iPSCs, one day incubation; class symbols; read-out: iPSC IC20 (nM) mHTT. How it is done:
C. Mutant HTT Assay in Induced Pluripotent Stem Cells (iPSC) a. Cell Culturing and Compound Treatment
Huntington's disease patient iPSCs (ND50036 from NINDS) were detached into single cells by Accutase (25058CI from Corning), counted and plated on a 24-well plate coated with Matrigel (354277 from Corning) at density of 7,000 cells/well. After 48 hrs, compounds were added to the cell culture medium mTeSR1 (85850 from StemCell Technologies) and the cells were incubated for one day. The medium was then removed, and the cells were washed with PBS. After all liquid was removed, the plate was placed at −80° C. overnight. Lysis buffer [30 mM Tris-HCl (pH 8.0), 5 mM NaCl, 0.1% Triton X-100] with the complete proteinase inhibitor cocktail (5892791001 from Sigma-Aldrich) was then added to the cells. Cell samples were lysed on an orbital plate shaker at 4° C. at 700 rpm for 30 min. The supernatants from spinning (14 k rpm for 10 min) were collected. The protein concentrations were determined by BCA assay (23225 from Pierce, ThermoFisher). […]
b. Detection of Mutant HTT Protein
Equal amounts of protein lysate collected from each sample were added to a 96-well plate that had been coated with a human HTT specific monoclonal antibody. After washing away any unbound substances, a biotinylated anti-human mutant HTT specific detection antibody was added. Streptavidin-horseradish peroxidase was subsequently added, followed by TMB Substrate Solution, which yielded a blue product that turns yellow when the Stop Solution was added. The intensity of the color measured was in proportion to the amount of mutant HTT bound in the initial step. The mutant HTT values are then interpolated from a standard curve.

Data set [6] deals with Huntington's disease patient iPSCs (ND50036). As to the kind of experiment: iPSC viability at IC20. In kind it is cell-based, human. The note with it: at the concentration of IC20.
Data set [7] relates to M2-8 cells. Description: M2-8 Cell viability Assay. The note with it: at the concentration of 1000 nM. The format is cell-based.

The structures appear in SMILES notation.

Regarding `C[C@@H](N[C@@H]1CCCc2c1[nH]c1ccc(Br)cc21)c1ccccc1` (single isomer, unassigned) [Compound 13], the IC20 was 101 to 300 nM in data set [1], over 1000 nM in data set [3] and under 100 nM in data set [5]. Besides, the “LBC viability at IC20” value in data set [2] was “* (cell viability is greater than 60% at the concentration of IC20)”. In addition, the IC50 in data set [4] was at most 100 nM. Besides, the “iPSC viability at IC20” value in data set [6] was “+ (cell viability is greater than 75% at the concentration of IC20)”. Further, in data set [7], the “M2-8 Cell viability” value is on record as “+ (cell viability is greater than 50% at the concentration of 1000 nM)”.
On to `C[C@H](N[C@@H]1CCCc2c1[nH]c1ccc(Br)cc21)c1ccccc1` (single isomer, unassigned) [Compound 14], for which the IC20 in data set [1] is under 100 nM; in data set [3] it was over 1000 nM; in data set [5] it was under 100 nM. The “LBC viability at IC20” value in data set [2] is “* (cell viability is greater than 60% at the concentration of IC20)”. Moreover, the IC50 in data set [4] is at most 100 nM. In addition, the “iPSC viability at IC20” value in data set [6] was “+ (cell viability is greater than 75% at the concentration of IC20)”. For the same compound, the “M2-8 Cell viability” value in data set [7] is given as “+ (cell viability is greater than 50% at the concentration of 1000 nM)”.
Take `COCC(N[C@@H]1CCCc2c1[nH]c1ccc(Br)cc21)c1ccc(C(C)(C)O)cc1` (single isomer, unassigned) [Compound 52]: the results for the IC20 in data set [1], in data set [3] and in data set [5] were under 100 nM, over 500 nM and under 100 nM, respectively. The “LBC viability at IC20” value in data set [2] is “* (cell viability is greater than 60% at the concentration of IC20)”. The same compound displayed a 50% inhibitory concentration (IC50) in data set [4] of at most 100 nM. For the same compound, in data set [6], the “iPSC viability at IC20” value was “+ (cell viability is greater than 75% at the concentration of IC20)”. In data set [7], the “M2-8 Cell viability” value was “+ (cell viability is greater than 50% at the concentration of 1000 nM)”.
`CC1(C)OB(c2ccc(CN[C@@H]3CCCc4c3[nH]c3ccc(Br)cc43)cc2)OC1(C)C` [Compound 43, (R)-6-bromo-N-(4-(4,4,5,5-tetramethyl-1,3,2-dioxaborolan-2-yl)benzyl)-2,3,4,9-tetrahydro-1H-carbazol-1-amine]: the IC20 was 101 to 300 nM in data set [1], over 1000 nM in data set [3] and under 100 nM in data set [5]. Further, the “LBC viability at IC20” value in data set [2] is reported as “* (cell viability is greater than 60% at the concentration of IC20)”. Also, in data set [4], the IC50 is at most 100 nM. The “iPSC viability at IC20” value in data set [6] is “+ (cell viability is greater than 75% at the concentration of IC20)”. In addition, the “M2-8 Cell viability” value in data set [7] was “+ (cell viability is greater than 50% at the concentration of 1000 nM)”.
For the compound `C=Cc1ccc2[nH]c3c(c2c1)CCC[C@H]3NCc1ccccc1` [Compound 45], the IC20 in data set [1] is under 100 nM; in data set [3], over 1000 nM; in data set [5], under 100 nM. In addition, in data set [2], the “LBC viability at IC20” value is “* (cell viability is greater than 60% at the concentration of IC20)”. For the same compound, the 50% inhibitory concentration (IC50) in data set [4] is at most 100 nM. In data set [6], the “iPSC viability at IC20” value was “+ (cell viability is greater than 75% at the concentration of IC20)”. Besides, in data set [7], the “M2-8 Cell viability” value is “+ (cell viability is greater than 50% at the concentration of 1000 nM)”.
Regarding `COC(C)(C)c1ccc(CN[C@@H]2CCCc3c2[nH]c2ccc(Br)cc32)cc1` [Compound 48, (R)-6-bromo-N-(4-(2-methoxypropan-2-yl)benzyl)-2,3,4,9-tetrahydro-1H-carbazol-1-amine], the IC20 is under 100 nM in data set [1], over 500 nM in data set [3] and under 100 nM in data set [5]. Further, the “LBC viability at IC20” value in data set [2] was “* (cell viability is greater than 60% at the concentration of IC20)”. For the same compound, in data set [4], the IC50 was at most 100 nM. Moreover, the “iPSC viability at IC20” value in data set [6] is “+ (cell viability is greater than 75% at the concentration of IC20)”. Also, the “M2-8 Cell viability” value in data set [7] is recorded as “+ (cell viability is greater than 50% at the concentration of 1000 nM)”.
Regarding `OC1(c2ccc(CN[C@@H]3CCCc4c3[nH]c3ccc(Br)cc43)cc2)CC1` [Compound 50, (R)-1-(4-(((6-bromo-2,3,4,9-tetrahydro-1H-carbazol-1-yl)amino)methyl)phenyl) cyclopropan-1-ol], the IC20 in data set [1] was under 100 nM; in data set [3], over 500 nM; in data set [5], under 100 nM. For the same compound, the “LBC viability at IC20” value in data set [2] is “* (cell viability is greater than 60% at the concentration of IC20)”. This compound also registered an IC50 in data set [4] of at most 100 nM. Besides, the “iPSC viability at IC20” value in data set [6] is recorded as “+ (cell viability is greater than 75% at the concentration of IC20)”. The “M2-8 Cell viability” value in data set [7] was “+ (cell viability is greater than 50% at the concentration of 1000 nM)”.
Turning to `Oc1ccc(CN[C@@H]2CCCc3c2[nH]c2ccc(Br)cc32)cc1` [Compound 60, (R)-4-(((6-bromo-2,3,4,9-tetrahydro-1H-carbazol-1-yl)amino)methyl)phenol], the IC20 in data set [1] is 101 to 300 nM; in data set [3], over 1000 nM; in data set [5], under 100 nM. In addition, in data set [2], the “LBC viability at IC20” value was “* (cell viability is greater than 60% at the concentration of IC20)”. Moreover, the IC50 in data set [4] is at most 100 nM. In addition, the “iPSC viability at IC20” value in data set [6] was “+ (cell viability is greater than 75% at the concentration of IC20)”. Also, the “M2-8 Cell viability” value in data set [7] is on record as “+ (cell viability is greater than 50% at the concentration of 1000 nM)”.
On to `CC(C)(O)c1ccc(CN[C@@H]2CCCc3c2[nH]c2ccc(Br)nc32)cc1` [Compound 63], for which the IC20 is under 100 nM in data set [1], over 500 nM in data set [3] and under 100 nM in data set [5]. Further, in data set [2], the “LBC viability at IC20” value is “* (cell viability is greater than 60% at the concentration of IC20)”. In data set [4], the IC50 was at most 100 nM. In data set [6], the “iPSC viability at IC20” value is “+ (cell viability is greater than 75% at the concentration of IC20)”. The “M2-8 Cell viability” value in data set [7] is on record as “+ (cell viability is greater than 50% at the concentration of 1000 nM)”.
Regarding `OCc1ccc(CN[C@@H]2CCCc3c2[nH]c2ccc(Br)nc32)cc1` [Compound 65], the IC20 in data set [1] is 301 to 1000 nM; in data set [3], over 1000 nM; in data set [5], under 100 nM. Also, the “LBC viability at IC20” value in data set [2] is reported as “* (cell viability is greater than 60% at the concentration of IC20)”. Further, the IC50 in data set [4] was at most 100 nM. For the same compound, the “iPSC viability at IC20” value in data set [6] is “+ (cell viability is greater than 75% at the concentration of IC20)”. Also, the “M2-8 Cell viability” value in data set [7] is on record as “+ (cell viability is greater than 50% at the concentration of 1000 nM)”.
In the case of `OC1(c2ccc(CN[C@@H]3CCCc4c3[nH]c3ccc(Br)nc43)s2)CC1` [Compound 70], in data set [4], the IC50 was at most 100 nM. Moreover, in data set [5], the concentration for an effect of 20% (IC20) is under 100 nM. Besides, the “iPSC viability at IC20” value in data set [6] is recorded as “+ (cell viability is greater than 75% at the concentration of IC20)”. For the same compound, the “M2-8 Cell viability” value in data set [7] is listed as “+ (cell viability is greater than 50% at the concentration of 1000 nM)”.
In the same order, the values of `OC1(c2ccc(CN[C@@H]3CCCc4c3[nH]c3ccc(Br)nc43)cc2)CC1` [Compound 71] are at most 100 nM, under 100 nM, “+ (cell viability is greater than 75% at the concentration of IC20)” and “+ (cell viability is greater than 50% at the concentration of 1000 nM)”.

The record behind these values is US20220062233A1 (The Board of Trustees of the Leland Stanford Junior …, priority 2018, published 2022).
